For 2 compounds, ED50 and Ki results are on record in patent US7452908B2, “Amide derivatives” (Banyu Pharmaceutical Co., Ltd., priority 1999, dated 2008).

SMILES strings stand for the structures. pKi: −log10 of the molar value.

Assay [1] addresses T1, M2 receptor (Rattus norvegicus, UniProt P10980).
T1 construct: from tissue; host or cells: whole animal, male SD rats (in vivo)
T1 sequence (P10980 1-466): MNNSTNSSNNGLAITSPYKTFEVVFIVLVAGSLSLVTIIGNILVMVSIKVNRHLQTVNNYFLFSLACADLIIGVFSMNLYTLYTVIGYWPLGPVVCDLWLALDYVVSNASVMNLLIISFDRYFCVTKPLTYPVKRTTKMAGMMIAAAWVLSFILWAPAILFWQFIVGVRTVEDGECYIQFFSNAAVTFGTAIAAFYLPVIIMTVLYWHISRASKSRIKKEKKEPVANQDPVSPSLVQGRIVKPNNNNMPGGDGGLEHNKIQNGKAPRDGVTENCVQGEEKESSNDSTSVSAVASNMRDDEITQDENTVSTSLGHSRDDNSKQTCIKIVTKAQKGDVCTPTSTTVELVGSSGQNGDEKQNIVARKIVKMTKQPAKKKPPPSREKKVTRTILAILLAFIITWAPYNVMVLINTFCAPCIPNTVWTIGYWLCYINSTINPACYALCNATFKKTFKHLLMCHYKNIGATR
Briefly: Antagonism to M2 receptor in vivo: acetylcholine-induced bradycardia reaction in rats. Particulars: iv, acetylcholine (10 μg/kg) 5 minutes after test compound. The protocol:
Male SD strain rats (weighing 300-500 g) were anesthetized with urethane (1 g/kg) and α-chloralose (50 mg/kg) administered intraperitoneally. […] In this experiment, one-dosage evaluation was conducted per one animal of the tested rats.

The target in assay [2] is T2, M1 receptor (Rattus norvegicus, UniProt P08482).
T2 construct: from tissue; host or cells: whole animal, male SD rats (in vivo)
T2 sequence (P08482 1-460): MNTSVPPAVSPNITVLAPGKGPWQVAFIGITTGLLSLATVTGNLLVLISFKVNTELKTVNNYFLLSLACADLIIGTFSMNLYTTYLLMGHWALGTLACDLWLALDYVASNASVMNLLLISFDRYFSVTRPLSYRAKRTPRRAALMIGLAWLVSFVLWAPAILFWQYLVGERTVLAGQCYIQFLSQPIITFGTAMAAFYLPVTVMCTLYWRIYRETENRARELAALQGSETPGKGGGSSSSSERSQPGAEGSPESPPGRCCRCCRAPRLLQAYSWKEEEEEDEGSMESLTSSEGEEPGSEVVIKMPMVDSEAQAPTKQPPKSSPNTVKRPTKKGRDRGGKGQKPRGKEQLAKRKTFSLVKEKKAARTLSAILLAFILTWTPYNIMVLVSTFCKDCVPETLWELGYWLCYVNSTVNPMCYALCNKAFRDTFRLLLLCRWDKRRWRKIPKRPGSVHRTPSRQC
Briefly: Antagonism to M1 receptor in vivo: McNeil-A-343-induced vasopressor reaction in cervical vertebrae-separated rats. To be noted: iv, McNeil-A-343 (0.3 mg/kg) 5 minutes after test compound. The protocol: Male SD strain rats (weighing 300-500 g) were anesthetized with intraperitoneal administration of pentobarbital (50 mg/kg). Each rat's airway was cannulated by laryngotomy. Also by femoral incision, femoral artery and vein were isolated each and cannulated, which were used as routes for heart rate counting and chemical administration, respectively. Using a pulmotor for small animals (Type 7025, Ugo Basile Co.), artificial respiration was conducted under the conditions of ventilation rate of 6 ml/kg per breath and respiration rate of 90 breaths/min. The heart rate and blood pressure variations were measured with a heart rate counter (AT-601 G, Nippon Koden Co.) and a tonometer (AP-641G, Nippon Koden Co.), via a pressure transducer (DX-312, Nippon Koden Co.). After the blood pressure was stabilized, the cervical vertebrae was separated with an injection needle pricked from the occipital region. […] Five (5) minutes thereafter, McNeil-A-343 (0.3 mg/kg) was intravenously administered, and whereby induced hypertension variation was recorded. In this experiment one-dose evaluation per one animal was conducted. The inhibitory effect (inhibition ratio) of the test compound on the McNeil-A-343-induced vasopressor reaction was determined by the following equation: […]

Assay [3] addresses T3, human m4 muscarinic acetylcholine receptor expressed in CHO cells (Homo sapiens, UniProt P08173).
T3 construct: purchased Receptor Biology, Inc; host or cells: CHO cells
T3 sequence (P08173 1-479): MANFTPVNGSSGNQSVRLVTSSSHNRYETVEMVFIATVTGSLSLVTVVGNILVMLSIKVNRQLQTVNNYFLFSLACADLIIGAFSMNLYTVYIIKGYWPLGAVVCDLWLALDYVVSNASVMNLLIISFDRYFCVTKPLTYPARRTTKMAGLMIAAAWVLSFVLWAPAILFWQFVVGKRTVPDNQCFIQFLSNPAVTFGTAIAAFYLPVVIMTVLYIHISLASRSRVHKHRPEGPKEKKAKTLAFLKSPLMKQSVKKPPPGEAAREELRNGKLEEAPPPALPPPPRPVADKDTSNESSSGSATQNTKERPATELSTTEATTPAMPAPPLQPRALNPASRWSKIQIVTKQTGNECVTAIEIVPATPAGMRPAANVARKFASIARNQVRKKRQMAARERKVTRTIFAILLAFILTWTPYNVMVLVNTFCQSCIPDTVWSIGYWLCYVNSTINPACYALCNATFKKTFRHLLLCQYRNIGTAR
The assay is described as follows: Inhibition of [3H]-N-methylscopolamine binding to muscarinic m4 receptor. To be noted: 0.2 nM [3H]-N-methylscopolamine. As for the experimental part: These tests were performed according to a modification of the method of Hargreaves, et al. (Br. J. Pharmacol. 107: 494-501, 1992). Namely, muscarinic acetylcholine receptors of human m1, m2, m3, m4 and m5 expressed in CHO cells (Receptor Biology, Inc.) were incubated with 0.2 nM [^3H]-N-methylscopolamine (82Ci/mmol, New England Nuclear, Inc.) and a test compound to be tested in 0.5 ml of 50 mM Tris-HCl, 10 mM MgCl2, 1 mM EDTA solution (pH 7.4) for 120 minutes at room temperature (about 20-25° C.), followed by suction filtration over a glass filter (UniFilter plate-GF/C; Packard). Then the filter was washed four times with 1 ml of ice-cold Tris-HCl buffer and dried at 50° C. for an hour. After adding a scintillator (Microscinti 0; Packard), the radioactivity of [^3H]-N-methylscopolamine binding to the filter was counted with a microplate scintillation counter (TopCount™; Packard). Non-specific receptor binding of [^3H]-N-methylscopolamine was measured by adding 1 μM N-methylscopolamine.

On to `O=C(CCNC(=O)CNC(=O)CC(c1ccccc1)(c1ccccc1)c1ccccc1)NC[C@H]1CCCN(CC2CCCCC2)C1` [Example 12, N-{2-(3-{((3R)-1-cyclohexylmethyl-3-piperidyl)methyl}amino-3-oxopropyl)amino-2-oxoethyl}-3,3,3-triphenyloropanamide], for which the values for the median effective dose (ED50) in assay [1] and in assay [2] were 1.55 mg/kg and over 3 mg/kg, respectively. The compound also showed a pKi in assay [3] of 7.74.
`CC[N+]1(CC)CCC[C@H](CNC(=O)[C@H]2CCCN2C(=O)[C@@H]2C[C@@H](O)CN2C(=O)CC(c2ccccc2)(c2ccccc2)c2ccccc2)C1.[Cl-]` [Example 133, (3R)-1,1-diethyl-3-({({(2R)-1-({(2S,4R)-4-hydroxy-1-(3,3,3-triphenylpropanoyl)-2-pyrrolidinyl}carbonyl)-2-pyrrolidinyl}carbonyl)amino}methyl)piperidinium chloride]: the 50% effective dose (ED50) was 0.114 mg/kg in assay [1] and over 0.3 mg/kg in assay [2]. In addition, the pKi in assay [3] was 6.85.

In general, ED50 refers to the dose that gives a 50% effect, or the effect in half of the subjects. As usually defined, the pKi is the negative decadic logarithm of the Ki, by convention in mol/L.
